Data published in publication PMC5289647, “L-glutamine Induces Expression of Listeria monocytogenes Virulence Genes” (PLoS Pathogens, 2017).

Legend:
GlnPQ = biological target: T1, GlnPQ (Listeria monocytogenes, UniProt A0A0H3GES4); assay: radiolabelled uptake by intact bacteria, rapid filtration; type: cell-based; details: PBS pH 7.4, 1.6 mM MgSO4, 1% glucose, 37 °C; labelled compound; mixed with unlabelled L-glutamine
T1 construct: gene LMRG_02270; native full-length ABC importer in L. monocytogenes cells; uptake compared with glnPQ deletion and complemented strains; glnP locus also printed as LMRG_02770 (apparent misprint)
T1 sequence (A0A0H3GES4 entry or part of it): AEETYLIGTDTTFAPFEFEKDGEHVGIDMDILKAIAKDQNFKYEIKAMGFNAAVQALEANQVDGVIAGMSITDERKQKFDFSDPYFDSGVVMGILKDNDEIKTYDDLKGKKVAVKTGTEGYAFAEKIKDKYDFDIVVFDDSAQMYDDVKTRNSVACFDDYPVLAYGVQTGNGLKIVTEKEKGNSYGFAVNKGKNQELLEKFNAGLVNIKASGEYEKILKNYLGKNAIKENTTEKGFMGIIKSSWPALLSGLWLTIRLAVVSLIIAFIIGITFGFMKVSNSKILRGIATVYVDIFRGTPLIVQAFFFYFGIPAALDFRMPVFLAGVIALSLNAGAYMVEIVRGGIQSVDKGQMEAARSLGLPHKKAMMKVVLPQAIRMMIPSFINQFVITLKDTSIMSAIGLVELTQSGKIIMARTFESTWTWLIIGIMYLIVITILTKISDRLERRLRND
T1 sequence (A0A0H3GF44 entry or part of it, further chain): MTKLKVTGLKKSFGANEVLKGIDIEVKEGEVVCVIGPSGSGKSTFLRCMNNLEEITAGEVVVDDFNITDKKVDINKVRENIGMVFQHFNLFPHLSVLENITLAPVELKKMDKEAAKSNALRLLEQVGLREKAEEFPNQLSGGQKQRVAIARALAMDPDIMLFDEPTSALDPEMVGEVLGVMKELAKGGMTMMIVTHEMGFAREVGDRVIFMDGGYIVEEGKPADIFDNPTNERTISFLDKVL

[1] = biological target: T2, SBP domain of LMRG_02270 (GlnPQ SBP; GlnP) (Listeria monocytogenes, UniProt A0A0H3GES4); assay: isothermal titration calorimetry; type: binding
T2 construct: SBP domain only (residues 29-254), signal peptide (first 28 residues) and transmembrane domain removed; N-terminal His-tag (pET-19b), codon-optimised synthetic gene; E. coli BL21-Gold (DE3); locus also printed as LMRG_02770 (apparent misprint)
T2 sequence (A0A0H3GES4 entry or part of it): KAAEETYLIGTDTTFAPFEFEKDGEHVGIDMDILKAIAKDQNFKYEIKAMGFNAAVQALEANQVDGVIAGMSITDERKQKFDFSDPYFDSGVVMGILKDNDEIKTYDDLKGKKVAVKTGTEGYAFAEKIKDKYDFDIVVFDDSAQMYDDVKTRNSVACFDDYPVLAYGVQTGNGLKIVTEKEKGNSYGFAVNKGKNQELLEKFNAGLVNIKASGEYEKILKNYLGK

| Structure (SMILES) | L-glutamine uptake (GlnPQ) | Kd [1] [µM] |
| --- | --- | --- |
| NC(=O)CC[C@H](N)C(=O)O [3H L-glutamine] | the rapid uptake of L-glutamine measured in the transport experiments is indeed mediated by an active |  |
| NC(=O)CC[C@H](N)C(=O)O [L-glutamine] |  | 4.7 |
